Patent US11000033B2, “Ketone or oxime compound, and herbicide” (NISSAN CHEMICAL CORPORATION, priority 2014, dated 2021)

Assays:
Assay type in all cases: in vivo
Setaria viridis = test: Test Example 5: herbicidal effect by foliage application, plastic box (symbol G); details: 320 g/ha, 3 weeks after application
Outline: (§1)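 Emulsion formulation, diluted with water to the intended rate, was applied uniformly to leaves by small sprayer. Recipients were 14-day greenhouse-grown seedlings (25° C. to 30° C.). Assessment followed at 3 weeks.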

soybean = test: Test Example 4: effect on crop by soil treatment (symbol d); details: 320 g/ha
Outline: (§2)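 Soil-treatment setup: crop and weed seeds were spot-sown into sterilized diluvial soil, then buried beneath approximately 1.5 cm of it, and the boxes were housed in a 25–30° C. greenhouse.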

Digitaria ciliaris [1] = test: Test Example 5: herbicidal effect by foliage application, plastic box (symbol F); details: 320 g/ha, 3 weeks after application
Outline: as §1

Stellaria media [2] = test: Test Example 5: herbicidal effect by foliage application, plastic box (symbol P); details: 320 g/ha, 3 weeks after application
Outline: as §1

rice = test: Test Example 4: effect on crop by soil treatment (symbol b); details: 320 g/ha
Outline: as §2

Chenopodium album = test: Test Example 5: herbicidal effect by foliage application, plastic box (symbol O); details: 320 g/ha, 3 weeks after application
Outline: as §1

Digitaria ciliaris [3] = test: Test Example 4: herbicidal effect by soil treatment (symbol F); details: 320 g/ha
Outline: (§3)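 Seeds were sown in sterilized diluvial soil, covered with about 1.5 cm of soil, and the soil surface was sprayed with a water-diluted emulsion of the compound at a predetermined rate. Plants grew in a greenhouse at 25° C. to 30° C.; effects were scored visually 3 weeks after application.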

[4] = system: directly sowed rice plant; test: Test Example 3: effect on crop by foliage application, Wagner pot (symbol b); details: application herbicide amount 320 g/ha
Outline: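 Steps: fill a 1/10000-are Wagner pot with alluvial soil; add water and mix to submerge at 0.1–0.5 cm depth; sow rice plus Echinochloa crus-galli var. crus-galli, Leptochloa chinensis and Cyperus difformis; grow in a 25–30 °C greenhouse.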

rapeseed = test: Test Example 4: effect on crop by soil treatment (symbol g); details: 320 g/ha
Outline: as §2

corn = test: Test Example 4: effect on crop by soil treatment (symbol c); details: 320 g/ha
Outline: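 Crop seed is sown in spots together with several weed species in a box of sterilized diluvial soil. It is covered by about 1.5 cm of soil and kept in a greenhouse held between 25° C. and 30° C.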

beet [5] = test: Test Example 4: effect on crop by soil treatment (symbol f); details: 320 g/ha
Outline: as §2

wheat = test: Test Example 5: effect on crop by foliage application, plastic box (symbol e); details: 320 g/ha, 3 weeks after application
Outline: (§4)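 Crop and weed seeds sown in spots in sterilized diluvial soil in plastic boxes and covered with about 1.5 cm soil. Plants raised in a greenhouse at 25° C. to 30° C. for foliar application.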

Lolium multiflorum Lam. = test: Test Example 4: herbicidal effect by soil treatment (symbol K); details: 320 g/ha
Outline: as §3

Veronica persica [6] = test: Test Example 5: herbicidal effect by foliage application, plastic box (symbol R); details: 320 g/ha, 3 weeks after application
Outline: as §1

Veronica persica [7] = test: Test Example 4: herbicidal effect by soil treatment (symbol R); details: 320 g/ha
Outline: as §3

[8] = system: Echinochloa crus-galli var. crus-galli; test: Test Example 4: herbicidal effect by soil treatment (symbol H); details: 320 g/ha
Outline: as §3

Galium spurium = test: Test Example 4: herbicidal effect by soil treatment (symbol Q); details: 320 g/ha
Outline: as §3

Stellaria media [9] = test: Test Example 4: herbicidal effect by soil treatment (symbol P); details: 320 g/ha
Outline: as §3

Abutilon theophrasti = test: Test Example 5: herbicidal effect by foliage application, plastic box (symbol M); details: 320 g/ha, 3 weeks after application
Outline: as §1

Avena fatua = test: Test Example 5: herbicidal effect by foliage application, plastic box (symbol I); details: 320 g/ha, 3 weeks after application
Outline: as §1

beet [10] = test: Test Example 5: effect on crop by foliage application, plastic box (symbol f); details: 320 g/ha, 3 weeks after application
Outline: as §4

Alopecurus myosuroides = test: Test Example 4: herbicidal effect by soil treatment (symbol J); details: 320 g/ha
Outline: as §3

rice plant = test: Test Example 5: effect on crop by foliage application, plastic box (symbol b); details: 320 g/ha, 3 weeks after application
Outline: as §4

Apera spica-venti = test: Test Example 5: herbicidal effect by foliage application, plastic box (symbol L); details: 320 g/ha, 3 weeks after application
Outline: as §1

CON=C(C)CC1CC(OC(=O)N(C)C)=C(c2c(C)cc(C)cc2C)C1=O (stereo not drawn) [1-108]
G: Setaria viridis, herbicidal effect (criteria 0-5) (Setaria viridis): 5 (Herbicidal ratio of 90% or more (almost completely withered)) | d: soybean, effect grade on crop (soybean): 0 (Herbicidal ratio of 5% or lower (almost no effect)) | F: Digitaria ciliaris, herbicidal effect (criteria 0-5) (Digitaria ciliaris [1]): 5 (Herbicidal ratio of 90% or more (almost completely withered)) | P: Stellaria media, herbicidal effect (criteria 0-5) (Stellaria media [2]): 3 (Herbicidal ratio of 40% or higher and lower than 70%) | b: directly sowed rice plant, effect grade on crop (rice): 5 (Herbicidal ratio of 90% or more (almost completely withered)) | O: Chenopodium album, herbicidal effect (criteria 0-5) (Chenopodium album): 0 (Herbicidal ratio of 5% or lower (almost no effect)) | F: Digitaria ciliaris, herbicidal effect grade (Digitaria ciliaris [3]): 5 (Herbicidal ratio of 90% or more (almost completely withered)) | effect on crop b (directly sowed rice plant), grade 0-5 [4]: 5 (Herbicidal ratio of 90% or more (almost completely withered)) | g: rapeseed, effect grade on crop (rapeseed): 4 (Herbicidal ratio of 70% or higher and lower than 90%) | c: corn, effect grade on crop (corn): 5 (Herbicidal ratio of 90% or more (almost completely withered)) | f: beet, effect grade on crop (beet [5]): 0 (Herbicidal ratio of 5% or lower (almost no effect)) | e: wheat, effect on crop (criteria 0-5) (wheat): 3 (Herbicidal ratio of 40% or higher and lower than 70%) | K: Lolium multiflorum Lam., herbicidal effect grade (Lolium multiflorum Lam.): 5 (Herbicidal ratio of 90% or more (almost completely withered)) | R: Veronica persica, herbicidal effect (criteria 0-5) (Veronica persica [6]): 1 (Herbicidal ratio of 5% or higher and lower than 20%) | R: Veronica persica, herbicidal effect grade (Veronica persica [7]): 0 (Herbicidal ratio of 5% or lower (almost no effect)) | H: Echinochloa crus-galli var. crus-galli, herbicidal effect grade [8]: 5 (Herbicidal ratio of 90% or more (almost completely withered)) | Q: Galium spurium, herbicidal effect grade (Galium spurium): 0 (Herbicidal ratio of 5% or lower (almost no effect)) | P: Stellaria media, herbicidal effect grade (Stellaria media [9]): 0 (Herbicidal ratio of 5% or lower (almost no effect)) | M: Abutilon theophrasti, herbicidal effect (criteria 0-5) (Abutilon theophrasti): 4 (Herbicidal ratio of 70% or higher and lower than 90%) | I: Avena fatua, herbicidal effect (criteria 0-5) (Avena fatua): 5 (Herbicidal ratio of 90% or more (almost completely withered)) | f: beet, effect on crop (criteria 0-5) (beet [10]): 1 (Herbicidal ratio of 5% or higher and lower than 20%) | J: Alopecurus myosuroides, herbicidal effect grade (Alopecurus myosuroides): 5 (Herbicidal ratio of 90% or more (almost completely withered)) | b: directly sowed rice plant, effect on crop (criteria 0-5) (rice plant): 5 (Herbicidal ratio of 90% or more (almost completely withered)) | L: Apera spica-venti, herbicidal effect (criteria 0-5) (Apera spica-venti): 5 (Herbicidal ratio of 90% or more (almost completely withered))
